{
  "source": "ChEMBL document CHEMBL1255549",
  "about": "(Bioorg Med Chem Lett, 2010)",
  "biological_target": "Maltase-glucoamylase (Homo sapiens, UniProt O43451)",
  "sequence (O43451 whole entry, the tested form may be a part)": "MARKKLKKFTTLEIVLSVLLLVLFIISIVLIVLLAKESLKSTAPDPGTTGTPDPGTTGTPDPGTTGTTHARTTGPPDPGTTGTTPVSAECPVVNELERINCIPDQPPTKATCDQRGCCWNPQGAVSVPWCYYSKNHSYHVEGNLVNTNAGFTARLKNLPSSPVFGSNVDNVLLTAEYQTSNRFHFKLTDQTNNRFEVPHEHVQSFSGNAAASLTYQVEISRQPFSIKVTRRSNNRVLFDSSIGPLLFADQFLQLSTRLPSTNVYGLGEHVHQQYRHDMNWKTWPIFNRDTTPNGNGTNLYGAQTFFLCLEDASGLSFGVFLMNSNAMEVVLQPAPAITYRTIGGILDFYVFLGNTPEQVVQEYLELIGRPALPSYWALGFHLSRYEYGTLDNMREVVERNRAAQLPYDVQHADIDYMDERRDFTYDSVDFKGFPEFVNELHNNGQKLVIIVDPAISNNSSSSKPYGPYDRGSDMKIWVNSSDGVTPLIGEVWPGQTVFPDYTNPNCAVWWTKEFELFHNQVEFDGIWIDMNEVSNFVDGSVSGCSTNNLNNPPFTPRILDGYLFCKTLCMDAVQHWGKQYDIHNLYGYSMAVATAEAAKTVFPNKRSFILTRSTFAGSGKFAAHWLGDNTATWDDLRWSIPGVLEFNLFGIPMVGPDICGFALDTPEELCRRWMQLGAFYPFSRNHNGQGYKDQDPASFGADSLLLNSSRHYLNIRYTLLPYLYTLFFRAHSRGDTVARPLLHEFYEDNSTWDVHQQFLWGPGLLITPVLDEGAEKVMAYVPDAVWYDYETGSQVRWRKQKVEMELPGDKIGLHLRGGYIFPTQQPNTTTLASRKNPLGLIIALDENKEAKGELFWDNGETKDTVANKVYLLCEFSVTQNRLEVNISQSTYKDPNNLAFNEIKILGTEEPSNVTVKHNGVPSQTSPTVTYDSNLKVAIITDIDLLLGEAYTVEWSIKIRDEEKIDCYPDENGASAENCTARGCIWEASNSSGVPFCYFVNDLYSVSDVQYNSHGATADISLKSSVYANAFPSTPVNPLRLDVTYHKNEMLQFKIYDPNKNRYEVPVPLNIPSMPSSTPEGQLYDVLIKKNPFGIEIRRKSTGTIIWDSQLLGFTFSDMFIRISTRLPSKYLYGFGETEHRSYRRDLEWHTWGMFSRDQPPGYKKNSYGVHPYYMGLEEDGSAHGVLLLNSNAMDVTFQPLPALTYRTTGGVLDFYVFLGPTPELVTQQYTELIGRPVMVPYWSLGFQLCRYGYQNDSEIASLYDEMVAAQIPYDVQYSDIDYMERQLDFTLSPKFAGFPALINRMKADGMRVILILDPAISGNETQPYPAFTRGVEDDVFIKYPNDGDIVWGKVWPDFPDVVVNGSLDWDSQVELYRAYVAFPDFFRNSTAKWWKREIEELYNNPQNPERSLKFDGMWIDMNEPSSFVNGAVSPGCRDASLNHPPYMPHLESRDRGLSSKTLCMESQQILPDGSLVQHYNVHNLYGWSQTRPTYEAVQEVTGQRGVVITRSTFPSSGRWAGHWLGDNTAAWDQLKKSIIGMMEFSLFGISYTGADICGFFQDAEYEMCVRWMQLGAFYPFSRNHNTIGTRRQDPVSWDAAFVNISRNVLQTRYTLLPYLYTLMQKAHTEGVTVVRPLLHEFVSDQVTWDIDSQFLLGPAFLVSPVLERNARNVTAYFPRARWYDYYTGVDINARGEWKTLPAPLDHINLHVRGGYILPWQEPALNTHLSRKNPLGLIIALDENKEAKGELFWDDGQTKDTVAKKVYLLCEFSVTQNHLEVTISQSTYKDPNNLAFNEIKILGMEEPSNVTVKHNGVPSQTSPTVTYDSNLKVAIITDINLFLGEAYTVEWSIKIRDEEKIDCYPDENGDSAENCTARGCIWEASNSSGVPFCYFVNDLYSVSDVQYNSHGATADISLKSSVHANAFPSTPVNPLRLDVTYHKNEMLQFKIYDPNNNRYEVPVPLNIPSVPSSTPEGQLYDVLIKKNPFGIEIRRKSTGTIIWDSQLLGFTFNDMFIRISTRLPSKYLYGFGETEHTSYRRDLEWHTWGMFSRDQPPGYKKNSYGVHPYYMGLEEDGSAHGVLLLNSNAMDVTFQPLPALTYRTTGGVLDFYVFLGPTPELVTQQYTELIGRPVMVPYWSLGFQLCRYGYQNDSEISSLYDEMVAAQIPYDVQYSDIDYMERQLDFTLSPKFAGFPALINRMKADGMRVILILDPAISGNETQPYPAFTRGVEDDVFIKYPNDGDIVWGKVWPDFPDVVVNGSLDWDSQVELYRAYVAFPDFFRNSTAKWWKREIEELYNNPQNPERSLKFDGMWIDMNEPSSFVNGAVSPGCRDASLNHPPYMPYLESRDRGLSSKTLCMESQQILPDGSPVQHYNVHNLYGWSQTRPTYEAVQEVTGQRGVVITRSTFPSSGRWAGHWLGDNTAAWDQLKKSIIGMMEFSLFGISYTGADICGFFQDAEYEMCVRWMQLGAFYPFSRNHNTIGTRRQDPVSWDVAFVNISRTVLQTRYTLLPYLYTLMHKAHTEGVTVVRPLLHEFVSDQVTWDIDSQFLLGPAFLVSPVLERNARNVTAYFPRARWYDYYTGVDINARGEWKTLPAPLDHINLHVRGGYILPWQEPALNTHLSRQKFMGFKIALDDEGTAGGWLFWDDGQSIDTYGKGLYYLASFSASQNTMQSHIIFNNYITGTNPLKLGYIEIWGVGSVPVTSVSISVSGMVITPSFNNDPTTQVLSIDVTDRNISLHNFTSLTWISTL",
  "assay": "Inhibition of human recombinant N-terminal domain of maltase-glucoamylase after 60 mins by glucose oxidase assay",
  "data": [
    {"smiles": "CO[C@@H]([C@H](O)[C@@H](O)CO)[C@H](O)C[S@+]1C[C@@H](O)[C@H](O)[C@H]1CO", "values": [
      {"measurement": "Ki", "result": 500, "unit": "nM"}
    ]}
  ]
}
